From patent publication US20180362543A1, “HIV REPLICATION INHIBITOR” (Shionogi & Co., Ltd., priority 2013, published 2018)

system: HIV (HTLV-III B strain); assay: HIV replication inhibition assay (MTT, MT-4 cells); type: cell-based; settings: 4 days culture, concentration at which cell cytotoxicity by virus is inhibited 50%
Experimental: HIV (HTLV-III B strain) persistent infected human T cell strain Molt-4 clone 8 was cultured in 10% Fetal Bovine Serum-containing RPMI-1640 medium and the supernatant was filtrated, then the virus titer was measured and the solution was stored at −80° C. Each anti-human immunodeficiency virus active substance was diluted with the above cultured medium to the designated concentration, which was dispensed into 96 well micro plate by 50 μL. Next, a MT-4 cell suspended liquid was dispensed by 100 μL (2.5×10^4 cells), then the above HIV-containing supernatant diluted with the above cultured medium was added thereto by 50 μL (60 pfu (plaque forming unit)).
The obtained mixture was cultured at 37° C. in CO2 incubator for four days, then 3-(4,5-dimehylthiazole-2-yl)-2,5-diphenyltetrazolynium bromide (MTT) 5 mg/mL in PBS was added to each well by 30 μL, followed by 1 hr-cultivation. In this step, as formazan was precipitated by reduction of MTT in living cells, the cell supernatant was removed from all well by 150 μL, then a 150 μL of solution (10% Triton X-100 and […]) was added thereto, followed by shaking with a plate mixer, to elute formazan. The formazan was measured with a microreader at OD: 560 nm and 690 nm (wavelength) and the result was compared with the reference. EC50 means the compound concentration at which cell cytotoxicity by virus is inhibited 50%.

SMILES	EC50 [nM]
Cc1cc(Cl)ccc1-c1c(C)c2c(c(C)c1[C@H](OC(C)(C)C)C(=O)O)N(S(C)(=O)=O)Cc1c(F)ccc(F)c1-2 [Compound 317]	70
Cc1cc(Cl)ccc1-c1c(C)c2c(c(C)c1[C@H](OC(C)(C)C)C(=O)O)N(S(C)(=O)=O)Cc1c(F)ccc(F)c1-2 [Compound 318]	17

same assay, conditions: Human immunodeficiency virus 1, MT4, 96 h, 4 days culture, concentration at which cell cytotoxicity by virus is inhibited 50%

SMILES	EC50 [nM]
Cc1ccc(-c2c(C)c3c(c(C)c2[C@H](OC(C)(C)C)C(=O)O)S(=O)(=O)Cc2cc(F)cc(F)c2-3)cc1 [Compound 298]	30
Cc1c(-c2cc(F)c3c(c2F)CCCO3)c([C@H](OC(C)(C)C)C(=O)O)c(C)c2c1-c1c(F)ccc(F)c1CN2S(C)(=O)=O [Compound 299]	26
Cc1c(-c2c(C)c3c(c(C)c2[C@H](OC(C)(C)C)C(=O)O)N(S(C)(=O)=O)Cc2ccccc2-3)ccc2c1NCCO2 [Compound 300]	< 7.8
Cc1ccc(-c2c(C)c3c(c(C)c2[C@H](OC(C)(C)C)C(=O)O)N(S(C)(=O)=O)Cc2cc(Cl)ccc2-3)cc1 [Compound 301]	4.9
Cc1ccc(-c2c(C)c3c(c(C)c2[C@H](OC(C)(C)C)C(=O)O)N(S(C)(=O)=O)Cc2cccc(Cl)c2-3)cc1 [Compound 302]	28.1
Cc1ccc(-c2c(C)c3c(c(C)c2[C@H](OC(C)(C)C)C(=O)O)N(S(C)(=O)=O)Cc2c(F)ccc(F)c2-3)c(F)c1 [Compound 304]	5.2
Cc1ccc(-c2c(C)c3c(c(C)c2[C@H](OC(C)(C)C)C(=O)O)N(S(C)(=O)=O)Cc2oc(C)nc2-3)cc1 [Compound 305]	28
COc1nc2c(s1)CN(S(C)(=O)=O)c1c(C)c([C@H](OC(C)(C)C)C(=O)O)c(-c3ccc(C)cc3)c(C)c1-2 [Compound 307]	51
Cc1c(-c2c(C)c3c(c(C)c2[C@H](OC(C)(C)C)C(=O)O)N(S(C)(=O)=O)Cc2cc(F)cnc2-3)ccc2c1NCCO2 [Compound 310]	25
Cc1c(-c2ccc3cccnc3c2C)c([C@H](OC(C)(C)C)C(=O)O)c(C)c2c1-c1c(F)ccc(F)c1CN2S(C)(=O)=O [Compound 311]	28
Cc1c(-c2c(C)c3c(c(C)c2[C@H](OC(C)(C)C)C(=O)O)N(S(C)(=O)=O)Cc2ccc(F)c(F)c2-3)ccc2c1NCCO2 [Compound 314]	5.3
Cc1ccc(-c2c(C)c3c(c(C)c2[C@H](OC(C)(C)C)C(=O)O)N(S(C)(=O)=O)Cc2cc(C)cnc2-3)cc1 [Compound 315]	< 7.8
Cc1ccc(-c2c(C)c3c(c(C)c2[C@H](OC(C)(C)C)C(=O)O)N(S(C)(=O)=O)Cc2c(C(F)(F)F)ccnc2-3)cc1 [Compound 319]	8.4
Cc1c(-c2c(C)c3c(c(C)c2[C@H](OC(C)(C)C)C(=O)O)N(S(C)(=O)=O)Cc2cc(F)cnc2-3)ccc2c1CCCO2 [Compound 320]	3.1
Cc1c(-c2ccc3c(c2C)N(C)CCO3)c([C@H](OC(C)(C)C)C(=O)O)c(C)c2c1-c1c(F)ccc(F)c1CN2S(C)(=O)=O [Compound 321]	15
COc1cc2c(cn1)-c1c(C)c(-c3ccc4c(c3C)NCCO4)c([C@H](OC(C)(C)C)C(=O)O)c(C)c1N(S(C)(=O)=O)C2 [Compound 322]	11

same assay, conditions: Human immunodeficiency virus 1, MT4, 96 h, Table A-5, four days

EC50 [nM]	SMILES
3.2	Cc1c(-c2c(C)c3c(c(C)c2[C@H](OC(C)(C)C)C(=O)O)N(S(C)(=O)=O)Cc2cc(F)cc(F)c2-3)ccc2c1NCCO2 [Compound 286]
33	Cc1ccc(-c2c(C)c3c(c(C)c2[C@H](OC(C)(C)C)C(=O)O)N(S(C)(=O)=O)[C@@H](C)c2ccccc2-3)cc1 [Compound 287]
53	CC(=O)N1Cc2ccccc2-c2c(C)c(-c3ccc(C)cc3)c([C@H](OC(C)(C)C)C(=O)O)c(C)c21 [Compound 290]
3.3	COc1ccc2c(c1F)CN(S(C)(=O)=O)c1c(C)c([C@H](OC(C)(C)C)C(=O)O)c(-c3ccc4c(c3C)NCCO4)c(C)c1-2 [Compound 293]
< 7.8	Cc1c(-c2ccc3c(c2Cl)NCCO3)c([C@H](OC(C)(C)C)C(=O)O)c(C)c2c1-c1c(F)ccc(F)c1CN2S(C)(=O)=O [Compound 296]

same assay, conditions: Human immunodeficiency virus 1, MT4, 96 h, Table A-7, four days

EC50 [nM]	SMILES
8.1	Cc1c(-c2ccc(Cl)cc2O)c([C@H](OC(C)(C)C)C(=O)O)c(C)c2c1-c1c(F)cccc1CN2S(C)(=O)=O [Compound 324]
7.2	Cc1c(-c2c(C)c3c(c(C)c2[C@H](OC(C)(C)C)C(=O)O)N(S(C)(=O)=O)Cc2cccc(F)c2-3)ccc(Cl)c1N [Compound 327]
39	COc1ccc(-c2c(C)c3c(c(C)c2[C@H](OC(C)(C)C)C(=O)O)N(S(C)(=O)=O)Cc2c(F)ccc(F)c2-3)c(C)n1 [Compound 329]
53	Cc1ccc(-c2c(C)c3c(c(C)c2[C@H](OC(C)(C)C)C(=O)O)N(S(C)(=O)=O)Cc2cc(N)ncc2-3)c(C)c1 [Compound 330]
24	Cc1c(-c2ccc(F)cc2O)c([C@H](OC(C)(C)C)C(=O)O)c(C)c2c1-c1c(F)ccc(F)c1CN2S(C)(=O)=O [Compound 332]
19	Cc1ccc(-c2c(C)c3c(c(C)c2[C@H](OC(C)(C)C)C(=O)O)N(S(N)(=O)=O)Cc2c(F)ccc(F)c2-3)cc1 [Compound 333]
22	Cc1ccc(-c2c(C)c3c(c(C)c2[C@H](OC(C)(C)C)C(=O)O)N(S(C)(=O)=O)Cc2cccc(F)c2-3)s1 [Compound 334]
30	Cc1ccc(-c2c(C)c3c(c(C)c2[C@H](OC(C)(C)C)C(=O)O)N(C(N)=O)Cc2c(F)ccc(F)c2-3)cc1 [Compound 335]
22	Cc1c(-c2ccc3c(c2)OCCO3)c([C@H](OC(C)(C)C)C(=O)O)c(C)c2c1-c1c(F)cccc1CN2S(C)(=O)=O [Compound 336]
26	Cc1c(-c2c(C)c3c(c(C)c2[C@H](OC(C)(C)C)C(=O)O)N(S(C)(=O)=O)[C@@H](C)c2cccnc2-3)ccc2c1NCCO2 [Compound 337]
4.3	Cc1c(-c2ccc3c(c2)NCCC3)c([C@H](OC(C)(C)C)C(=O)O)c(C)c2c1-c1c(F)cccc1CN2S(C)(=O)=O [Compound 340]
9	CC(=O)N1Cc2cccc(F)c2-c2c(C)c(-c3ccc4c(c3C)NCCO4)c([C@H](OC(C)(C)C)C(=O)O)c(C)c21 [Compound 342]
16	Cc1cc(C)c(-c2c(C)c3c(c(C)c2[C@H](OC(C)(C)C)C(=O)O)N(S(C)(=O)=O)Cc2cccc(F)c2-3)s1 [Compound 343]
47	Cc1c(-c2c(C)c3c(c(C)c2[C@H](OC(C)(C)C)C(=O)O)N(C)Cc2cc(F)cc(F)c2-3)ccc2c1NCCO2 [Compound 344]
6.8	Cc1ccc2c(c1)-c1c(C)c(-c3ccc4c(c3C)NCCO4)c([C@H](OC(C)(C)C)C(=O)O)c(C)c1N(S(C)(=O)=O)C2 [Compound 345]
4.8	Cc1cccc2c1CN(S(C)(=O)=O)c1c(C)c([C@H](OC(C)(C)C)C(=O)O)c(-c3ccc4c(c3C)NCCO4)c(C)c1-2 [Compound 346]
22	Cc1cccc2c1-c1c(C)c(-c3ccc4c(c3C)NCCO4)c([C@H](OC(C)(C)C)C(=O)O)c(C)c1N(S(C)(=O)=O)C2 [Compound 347]
2	Cc1ccc2c(c1)CN(S(C)(=O)=O)c1c(C)c([C@H](OC(C)(C)C)C(=O)O)c(-c3ccc4c(c3C)NCCO4)c(C)c1-2 [Compound 348]
96	Cc1c(-c2c(C)c3c(c(C)c2[C@H](OC(C)(C)C)C(=O)O)N(S(C)(=O)=O)Cc2cccc(F)c2-3)ccc2c1NC(=O)CO2 [Compound 350]
4.5	CCC(C)(C)O[C@H](C(=O)O)c1c(C)c2c(c(C)c1-c1ccc3c(c1C)NCCO3)-c1c(F)cccc1CN2S(C)(=O)=O [Compound 351]
10	Cc1ccc(-c2c(C)c3c(c(C)c2[C@H](OC(C)(C)C)C(=O)O)N(S(C)(=O)=O)Cc2cccc(F)c2-3)cc1N [Compound 352]
91	Cc1c(-c2c(C)c3c(c(C)c2[C@H](OC(C)(C)C)C(=O)O)N(C(N)=O)Cc2c(F)ccc(F)c2-3)ccc2c1NCCO2 [Compound 358]
5.4	Cc1c(-c2c(C)c3c(c(C)c2[C@H](OC(C)(C)C)C(=O)O)N(S(C)(=O)=O)Cc2cccc(F)c2-3)ccc2c1NCCC2 [Compound 359]
4.4	Cc1c(-c2c(C)c3c(c(C)c2[C@H](OC(C)(C)C)C(=O)O)N(S(C)(=O)=O)Cc2cccc(F)c2-3)ccc2c1OCCO2 [Compound 360]

same assay, conditions: Human immunodeficiency virus 1, MT4, 96 h, Table A-8 (continuation of Tables A-1 to A-9), four days

EC50 [nM]	SMILES
14	Cc1c(-c2ccc3c(c2)NCC3)c([C@H](OC(C)(C)C)C(=O)O)c(C)c2c1-c1c(F)cccc1CN2S(C)(=O)=O [Compound 363]
16	Cc1c(-c2ccc(Cl)c3[nH]ccc23)c([C@H](OC(C)(C)C)C(=O)O)c(C)c2c1-c1c(F)cccc1CN2S(C)(=O)=O [Compound 364]
7.6	Cc1c(-c2c(C)c3c(c(C)c2[C@H](OC(C)(C)C)C(=O)O)N(S(C)(=O)=O)Cc2cccc(F)c2-3)ccc(Br)c1N [Compound 367]

same assay, conditions: Table A-5, four days

EC50 [nM]	SMILES
37	Cc1ccc(-c2c(C)c3c(c(C)c2[C@H](OC(C)(C)C)C(=O)O)N(S(C)(=O)=O)CC2CCCCN32)cc1 (some centres unmarked) [Compound 288]

same assay, conditions: Table A-7, four days

EC50 [nM]	SMILES
11	Cc1c(-c2ccc(Cl)cc2)c([C@H](OC(C)(C)C)C(=O)O)c(C)c2c1-c1ncc(F)cc1CN2S(C)(=O)=O [Compound 325]
54	Cc1c(-c2ccccc2)c([C@H](OC(C)(C)C)C(=O)O)c(C)c2c1-c1ncc(F)cc1CN2S(C)(=O)=O [Compound 326]
